We go through 24 compounds from US6982348B2, “Aminoethanol derivatives” (Takeda Pharmaceutical Company Limited, priority 2001, dated 2006).

The compound `O=C(N[C@H](Cc1cccc(OC(F)(F)C(F)F)c1)[C@@H](O)c1cccc(F)c1)c1cccc2c1C=CCCC2` (racemic) [Example 235, N-((1RS,2SR)-2-(3-fluorophenyl)-2-hydroxy-1-[3-(1,1,2,2-tetrafluoroethoxy)benzyl]ethyl)-6,7-dihydro-5H-benzo[a][7]annulene-1-carboxamide] returned a melting point of 150 to 155 °C. Next, `O=C(N[C@H](Cc1cccc(OC(F)(F)C(F)F)c1)[C@@H](O)c1ccc(OCc2ccccc2)cc1)c1cccc2c1C=CCCC2` (racemic) [Example 236, N-{(1RS,2SR)-2-[4-(benzyloxy)phenyl]-2-hydroxy-1-[3-(1,1,2,2-tetrafluoroethoxy)benzyl]ethyl}-6,7-dihydro-5H-benzo[a][7]annulene-1-carboxamide]: 115 to 116 °C; `O=C(N[C@H](Cc1cccc(OC(F)(F)C(F)F)c1)[C@@H](O)c1cccc(Cl)c1)c1cccc2c1C=CCCC2` (racemic) [Example 237, N-{(1RS,2SR)-2-(3-chlorophenyl)-2-hydroxy-1-[3-(1,1,2,2-tetrafluoroethoxy)benzyl]ethyl}-6,7-dihydro-5H-benzo[a][7]annulene-1-carboxamide]: 160 to 161 °C; `CC(C)(C)OC(=O)N[C@H](Cc1cccc(OC(F)(F)C(F)F)n1)[C@@H](O)c1ccc(F)cc1` (racemic) [Example 238, tert-butyl (1RS,2SR)-2-(4-fluorophenyl)-2-hydroxy-1-{[6-(1,1,2,2-tetrafluoroethoxy)pyridin-2-yl]methyl}ethylcarbamate]: 109 to 110 °C. The figure for `O=C(N[C@H](Cc1cccc(OC(F)(F)C(F)F)n1)[C@@H](O)c1ccc(F)cc1)c1cccc2c1C=CCCC2` (racemic) [Example 239, N-((1RS,2SR)-2-(4-fluorophenyl)-2-hydroxy-1-{[6-(1,1,2,2-tetrafluoroethoxy)pyridin-2-yl]methyl}ethyl)-6,7-dihydro-5H-benzo[a][7]annulene-1-carboxamide] is 134 to 135 °C; for `O=C(N[C@H](Cc1cccc(OC(F)(F)C(F)F)c1)[C@@H](O)c1cccc(OCc2ccccc2)c1)c1cccc2c1C=CCCC2` (racemic) [Example 240, N-{(1RS,2SR)-2-[3-(benzyloxy)phenyl]-2-hydroxy-1-[3-(1,1,2,2-tetrafluoroethoxy)benzyl]ethyl}-6,7-dihydro-5H-benzo[a][7]annulene-1-carboxamide] it is 128 to 129 °C. The figure for `O=C(N[C@H](Cc1cccc(OC(F)(F)C(F)F)c1)[C@@H](O)c1ccc(O)cc1)c1cccc2c1C=CCCC2` (racemic) [Example 241, N-{(1RS,2SR)-2-hydroxy-2-(4-hydroxyphenyl)-1-[3-(1,1,2,2-tetrafluoroethoxy)benzyl]ethyl}-6,7-dihydro-5H-benzo[a][7]annulene-1-carboxamide] is 167 to 168 °C; for `COc1ccc([C@H](O)[C@@H](Cc2cccc(OC(F)(F)C(F)F)c2)NC(=O)c2cccc3c2C=CCCC3)cc1` (racemic) [Example 242, N-{(1RS,2SR)-2-hydroxy-2-(4-methoxyphenyl)-1-[3-(1,1,2,2-tetrafluoroethoxy)benzyl]ethyl}-6,7-dihydro-5H-benzo[a][7]annulene-1-carboxamide] it is 151 to 152 °C; for `CC(C)Oc1ccc([C@H](O)[C@@H](Cc2cccc(OC(F)(F)C(F)F)c2)NC(=O)c2cccc3c2C=CCCC3)cc1` (racemic) [Example 243, N-{(1RS,2SR)-2-hydroxy-2-(4-isopropoxyphenyl)-1-[3-(1,1,2,2-tetrafluoroethoxy)benzyl]ethyl}-6,7-dihydro-5H-benzo[a][7]annulene-1-carboxamide] it is 134 to 135 °C. `CCCCOc1ccc([C@H](O)[C@@H](Cc2cccc(OC(F)(F)C(F)F)c2)NC(=O)c2cccc3c2C=CCCC3)cc1` (racemic) [Example 244, N-{(1RS,2SR)-2-(4-butoxyphenyl)-2-hydroxy-1-[3-(1,1,2,2-tetrafluoroethoxy)benzyl]ethyl}-6,7-dihydro-5H-benzo[a][7]annulene-1-carboxamide] registered a melting point of 126 to 127 °C. Next, `O=C(N[C@H](Cc1cccc(OC(F)(F)C(F)F)c1)[C@@H](O)c1ccc(OCc2ccc(F)cc2)cc1)c1cccc2c1C=CCCC2` (racemic) [Example 245, N-{(1RS,2SR)-2-{4-[(4-fluorobenzyl)oxy]phenyl}-2-hydroxy-1-[3-(1,1,2,2-tetrafluoroethoxy)benzyl]ethyl}-6,7-dihydro-5H-benzo[a][7]annulene-1-carboxamide]: 144 to 145 °C; `O=C(N[C@H](Cc1cccc(OC(F)(F)C(F)F)c1)[C@@H](O)c1ccc(OCC2CCCCC2)cc1)c1cccc2c1C=CCCC2` (racemic) [Example 246, N-{(1RS,2SR)-2-[4-(cyclohexylmethoxy)phenyl]-2-hydroxy-1-[3-(1,1,2,2-tetrafluoroethoxy)benzyl]ethyl}-6,7-dihydro-5H-benzo[a][7]annulene-1-carboxamide]: 141 to 142 °C. The figure for `O=C(N[C@H](Cc1cccc(OC(F)(F)C(F)F)c1)[C@@H](O)c1ccc(OCCCOc2ccccc2)cc1)c1cccc2c1C=CCCC2` (racemic) [Example 247, N-{(1RS,2SR)-2-hydroxy-2-[4-(3-phenoxypropoxy)phenyl]-1-[3-(1,1,2,2-tetrafluoroethoxy)benzyl]ethyl}-6,7-dihydro-5H-benzo[a][7]annulene-1-carboxamide] is 142 to 143 °C; for `COC(=O)c1ccc(COc2ccc([C@@H](O)[C@H](Cc3cccc(OC(F)(F)C(F)F)c3)NC(=O)c3cccc4c3C=CCCC4)cc2)cc1` (racemic) [Example 248, methyl 4-[(4-{(1RS,2SR)-2-[(6,7-dihydro-5H-benzo[a][7]annulen-1-ylcarbonyl)amino]-1-hydroxy-3-[3-(1,1,2,2-tetrafluoroethoxy)phenyl]propyl}phenoxy)methyl]benzoate] it is 169 to 170 °C; for `CC(=O)OCCOc1ccc([C@@H](O)[C@H](Cc2cccc(OC(F)(F)C(F)F)c2)NC(=O)c2cccc3c2C=CCCC3)cc1` (racemic) [Example 249, (4-{(1RS,2SR)-2-[(6,7-dihydro-5H-benzo[a][7]annulen-1-ylcarbonyl)amino]-1-hydroxy-3-[3-(1,1,2,2-tetrafluoroethoxy)phenyl]propyl}phenoxy)ethyl acetate] it is 125 to 126 °C. The figure for `O=C(O)c1ccc(COc2ccc([C@@H](O)[C@H](Cc3cccc(OC(F)(F)C(F)F)c3)NC(=O)c3cccc4c3C=CCCC4)cc2)cc1` (racemic) [Example 250, 4-[(4-{(1RS,2SR)-2-[(6,7-dihydro-5H-benzo[a][7]annulen-1-ylcarbonyl)amino]-1-hydroxy-3-[3-(1,1,2,2-tetrafluoroethoxy)phenyl]propyl}phenoxy)methyl]benzoic acid] is 190 to 191 °C; for `O=C(O)COc1ccc([C@@H](O)[C@H](Cc2cccc(OC(F)(F)C(F)F)c2)NC(=O)c2cccc3c2C=CCCC3)cc1` (racemic) [Example 251, (4-{(1RS,2SR)-2-[(6,7-dihydro-5H-benzo[a][7]annulen-1-ylcarbonyl)amino]-1-hydroxy-3-[3-(1,1,2,2-tetrafluoroethoxy)phenyl]propyl}phenoxy)acetic acid] it is 119 to 120 °C. The compound `COc1cccc([C@H](O)[C@@H](Cc2cccc(OC(F)(F)C(F)F)c2)NC(=O)c2cccc3c2C=CCCC3)c1` (racemic) [Example 253, N-{(1RS,2SR)-2-hydroxy-2-(3-methoxyphenyl)-1-[3-(1,1,2,2-tetrafluoroethoxy)benzyl]ethyl}-6,7-dihydro-5H-benzo[a][7]annulene-1-carboxamide] had a melting point of 155 to 156 °C.

Take `CC(C)(C)OC(=O)N[C@H](Cc1cccc(OC(F)(F)C(F)F)c1)[C@@H](O)c1ccc(Oc2ccccc2)cn1` (racemic) [Example 254, tert-butyl (1RS,2RS)-2-hydroxy-2-(5-phenoxypyridin-2-yl)-1-[3-(1,1,2,2-tetrafluoroethoxy)benzyl]ethylcarbamate]: the melting point was 129 to 130 °C.

`O=C(N[C@H](Cc1cccc(OC(F)(F)C(F)F)c1)[C@@H](O)c1ccc(Oc2ccccc2)cn1)c1cccc2c1C=CCCC2` (racemic) [Example 255, N-{(1RS,2RS)-2-hydroxy-2-(5-phenoxypyridin-2-yl)-1-[3-(1,1,2,2-tetrafluoroethoxy)benzyl]ethyl}-6,7-dihydro-5H-benzo[a][7]annulene-1-carboxamide] registered a melting point of 147 to 148 °C.

Regarding `O=C(N[C@H](Cc1cccc(OC(F)(F)C(F)F)c1)[C@@H](O)c1ccc(Oc2ccccc2)cn1)c1ccc(F)c2ccccc12` (racemic) [Example 256, 4-fluoro-N-{(1RS,2RS)-2-hydroxy-2-(5-phenoxypyridin-2-yl)-1-[3-(1,1,2,2-tetrafluoroethoxy)benzyl]ethyl}-1-naphthamide], the melting point was 146 to 147 °C. The figure for `CC(C)(C)OC(=O)N[C@H](Cc1cccc(OC(F)(F)C(F)F)c1)[C@@H](O)c1ccc(Oc2ccccn2)cc1` (racemic) [Example 257, tert-butyl (1RS,2SR)-2-hydroxy-2-[4-(pyridin-2-yloxy)phenyl]-1-[3-(1,1,2,2-tetrafluoroethoxy)benzyl]ethylcarbamate] is 130 to 131 °C.

On to `O=C(N[C@H](Cc1cccc(OC(F)(F)C(F)F)c1)[C@@H](O)c1ccc(Oc2ccccn2)cc1)c1cccc2c1C=CCCC2` (racemic) [Example 258, N-{(1RS,2SR)-2-hydroxy-2-[4-(pyridin-2-yloxy)phenyl]-1-[3-(1,1,2,2-tetrafluoroethoxy)benzyl]ethyl}-6,7-dihydro-5H-benzo[a][7]annulene-1-carboxamide], for which the melting point lay within 160 to 161 °C. Next, `O=C(N[C@H](Cc1cccc(OC(F)(F)C(F)F)c1)[C@@H](O)c1ccc(Oc2ccccn2)cc1)c1ccc(F)c2ccccc12` (racemic) [Example 259, 4-fluoro-N-{(1RS,2SR)-2-hydroxy-2-[4-(pyridin-2-yloxy)phenyl]-1-[3-(1,1,2,2-tetrafluoroethoxy)benzyl]ethyl}-1-naphthamide]: 176 to 177 °C.

For orientation: melting point means the temperature of the solid-liquid transition.
